Experimental data from patent US9464084B2, “P2X7 modulators” (Janssen Pharmaceutica NV, priority 2013, dated 2016).

Molecular target: P2X7 (Homo sapiens (Human), UniProt Q99572)
Assay: P2X7 antagonism in human PBMCs (LPS + Bz-ATP induced IL-1β release, ELISA);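 also: PBMCs from donor human blood, with a further 1.5 h incubation of the cells in the assay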
Format: cell-based
Conditions: compound 1 μM, LPS 30 ng/ml, Bz-ATP 0.5 mM

Chain of P2X7 (Q99572 whole entry): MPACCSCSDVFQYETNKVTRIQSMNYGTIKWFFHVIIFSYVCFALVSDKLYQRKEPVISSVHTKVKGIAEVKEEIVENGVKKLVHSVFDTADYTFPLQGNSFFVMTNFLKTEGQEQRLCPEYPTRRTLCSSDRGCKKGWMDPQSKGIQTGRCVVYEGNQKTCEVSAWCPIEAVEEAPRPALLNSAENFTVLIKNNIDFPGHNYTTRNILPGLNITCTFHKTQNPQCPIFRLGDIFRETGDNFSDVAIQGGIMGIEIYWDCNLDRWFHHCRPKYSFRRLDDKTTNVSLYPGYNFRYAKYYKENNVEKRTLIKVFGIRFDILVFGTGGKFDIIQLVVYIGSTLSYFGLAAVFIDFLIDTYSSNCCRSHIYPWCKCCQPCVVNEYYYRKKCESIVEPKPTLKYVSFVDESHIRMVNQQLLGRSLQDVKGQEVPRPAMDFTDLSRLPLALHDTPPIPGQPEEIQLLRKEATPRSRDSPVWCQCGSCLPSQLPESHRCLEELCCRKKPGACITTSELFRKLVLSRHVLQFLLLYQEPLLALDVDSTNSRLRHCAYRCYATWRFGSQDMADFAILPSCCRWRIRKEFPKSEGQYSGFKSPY

| SMILES | PBMC 1 μM (% control) |
| --- | --- |
| O=C(c1cccc(Cl)c1Cl)N1CCc2c(ncn2-c2ccccc2)C1 [Example 3, (2,3-Dichlorophenyl)(1-phenyl-6,7-dihydro-1H-imidazo[4,5-c]pyridin-5(4H)-yl)methanone] | 23.0 % control |
| O=C(c1cccc(C(F)(F)F)c1Cl)N1CCc2c(ncn2-c2cc(F)cc(F)c2)C1 [Example 7, (2-Chloro-3-(trifluoromethyl)phenyl)(1-(3,5-difluorophenyl)-6,7-dihydro-1H-imidazo[4,5-c]pyridin-5(4H)-yl)methanone] | 98.7 % control |
| O=C(c1cccc(C(F)(F)F)c1Cl)N1CCc2ncn(-c3ccccn3)c2C1 [Example 8, (2-Chloro-3-(trifluoromethyl)phenyl)(3-(pyridin-2-yl)-6,7-dihydro-3H-imidazo[4,5-c]pyridin-5(4H)-yl)methanone] | 83.1 % control |
| O=C(c1cccc(Cl)c1Cl)N1CCc2ncn(-c3ccccn3)c2C1 [Example 9, (2,3-Dichlorophenyl)(3-(pyridin-2-yl)-6,7-dihydro-3H-imidazo[4,5-c]pyridin-5(4H)-yl)methanone] | 83.7 % control |
| O=C(c1cccc(C(F)(F)F)c1Cl)N1CCc2ncn(-c3cnccn3)c2C1 [Example 10, (2-Chloro-3-(trifluoromethyl)phenyl)(3-(pyrazin-2-yl)-6,7-dihydro-3H-imidazo[4,5-c]pyridin-5(4H)-yl)methanone] | 76.5 % control |
| CC1c2ncn(-c3ccccc3)c2CCN1C(=O)c1cccc(C(F)(F)F)c1Cl (stereo not shown) [Example 12, (2-Chloro-3-(trifluoromethyl)phenyl)(4-methyl-1-phenyl-6,7-dihydro-1H-imidazo[4,5-c]pyridin-5(4H)-yl)methanone] | 11.2 % control |
| CC1c2ncn(-c3ccccn3)c2CCN1C(=O)c1cccc(C(F)(F)F)c1Cl (stereo not shown) [Example 17, (2-Chloro-3-(trifluoromethyl)phenyl)(4-methyl-1-(pyridin-2-yl)-6,7-dihydro-1H-imidazo[4,5-c]pyridin-5(4H)-yl)methanone] | 6.5 % control |
| CC1c2ncn(-c3ccc(F)cc3)c2CCN1C(=O)c1cccc(C(F)(F)F)c1Cl (stereo not shown) [Example 18, (2-Chloro-3-(trifluoromethyl)phenyl)(1-(4-fluorophenyl)-4-methyl-6,7-dihydro-1H-imidazo[4,5-c]pyridin-5(4H)-yl)methanone] | 5.3 % control |

Same assay, conditions: compound 10 μM, LPS 30 ng/ml, Bz-ATP 0.5 mM

| SMILES | PBMC 10 μM (% control) |
| --- | --- |
| Cc1nc(-n2nnc3c2CCN(C(=O)c2cccc(C(F)(F)F)c2Cl)C3C)ncc1F (single isomer, unassigned) [Example 306, (S*)-(2-chloro-3-(trifluoromethyl)phenyl)(1-(5-fluoro-4-methylpyrimidin-2-yl)-4-methyl-6,7-dihydro-1H-[1,2,3]triazolo[4,5-c]pyridin-5(4H)-yl)methanone] | 2.5 % control |
| C[C@H]1c2ncn(-c3ccc(F)cn3)c2CCN1C(=O)c1cccc(C(F)(F)F)c1Cl (stereo in doubt) [Example 41] | 40.5 % control |
| CC1c2ncn(-c3ccc(F)cn3)c2CCN1C(=O)c1cccc(C(F)(F)F)c1Cl (stereo not shown) [Example 11, (2-Chloro-3-(trifluoromethyl)phenyl)(1-(5-fluoropyridin-2-yl)-4-methyl-6,7-dihydro-1H-imidazo[4,5-c]pyridin-5(4H)-yl)methanone] | 25.2 % control |
| CC1c2ncn(-c3ccccn3)c2CCN1C(=O)c1cccc(C(F)(F)F)c1F (stereo not shown) [Example 19, (2-Fluoro-3-(trifluoromethyl)phenyl)(4-methyl-1-(pyridin-2-yl)-6,7-dihydro-1H-imidazo[4,5-c]pyridin-5(4H)-yl)methanone] | 11.6 % control |
| CC1c2ncn(-c3ncc(F)cn3)c2CCN1C(=O)c1cccc(C(F)(F)F)c1Cl (stereo not shown) [Example 22, (2-Chloro-3-(trifluoromethyl)phenyl)(1-(5-fluoropyrimidin-2-yl)-4-methyl-6,7-dihydro-1H-imidazo[4,5-c]pyridin-5(4H)-yl)methanone] | −15.9 % control |
